Measurements: article PMC5224920, “Assessing the mechanism and therapeutic potential of modulators of the human Mediator complex-associated protein kinases” (eLife, 2016)

Test system: 12 single or co-culture in vitro tissue models of primary cells
Assay: Culture/co-culture cell model panel, extracellular biomarkers (DiscoveRx); as to CCL2/MCP-1: reference of the scale not given here; as to CXCL8/IL-8: reference of the scale not given here; as to CXCL9/MIG: reference of the scale not given here; as to M-CSF: reference of the scale not given here; as to PBMC Cytotoxicity: reference of the scale not given here; as to SRB: reference of the scale not given here; as to sTNF-alpha: reference of the scale not given here
Format: cell-based, human
Conditions: for sTNF-alpha / B cell Proliferation / PBMC Cytotoxicity / Secreted IgG / sIL-2 / sIL-6 / sIL-17A / sIL-17F: BT; for CCL2/MCP-1 / CD54/ICAM-1 / CD106/VCAM-1 / CXCL8/IL-8 / CXCL9/MIG / CXCL10/IP-10 / CXCL11/I-TAC / Collagen I / Collagen III / EGFR / M-CSF / MMP-1 / PAI-I / Proliferation_72hr / SRB / TIMP-1 / TIMP-2: HDF3CGF stimulated fibroblasts

Cc1n[nH]c2ncc(C(=O)N3CCC[C@H]3c3ccc(Cl)cc3)cc12 [CMPD4]
sTNF-alpha (1.00E4 nM): 0.086 | B cell Proliferation (1.11E3 nM): 0.005 | PBMC Cytotoxicity (1.11E3 nM): 0.008 | Secreted IgG (1.11E3 nM): -0.271 | sIL-2 (1.11E3 nM): -0.010 | sIL-6 (1.11E3 nM): 0.011 | sIL-17A (1.11E3 nM): 0.280 | sIL-17F (1.11E3 nM): -0.402 | sTNF-alpha (1.11E3 nM): 0.063 | B cell Proliferation (1.23E2 nM): 0.027 | PBMC Cytotoxicity (1.23E2 nM): 0.018 | Secreted IgG (1.23E2 nM): -0.256 | sIL-2 (1.23E2 nM): 0.014 | sIL-6 (1.23E2 nM): 0.030 | sIL-17A (1.23E2 nM): 0.185 | sIL-17F (1.23E2 nM): -0.282 | sTNF-alpha (1.23E2 nM): 0.057 | B cell Proliferation (1.37E1 nM): -0.012 | PBMC Cytotoxicity (1.37E1 nM): 0.011 | Secreted IgG (1.37E1 nM): -0.141 | sIL-2 (1.37E1 nM): 0.014 | sIL-6 (1.37E1 nM): 0.027 | sIL-17A (1.37E1 nM): 0.187 | sIL-17F (1.37E1 nM): -0.0019 | sTNF-alpha (1.37E1 nM): 0.046 | B cell Proliferation (3.33E3 nM): -0.018 | PBMC Cytotoxicity (3.33E3 nM): -0.00188 | Secreted IgG (3.33E3 nM): -0.298 | sIL-2 (3.33E3 nM): -0.066 | sIL-6 (3.33E3 nM): 0.010 | sIL-17A (3.33E3 nM): 0.312 | sIL-17F (3.33E3 nM): -0.374 | sTNF-alpha (3.33E3 nM): 0.093 | B cell Proliferation (3.70E2 nM): -0.072 | PBMC Cytotoxicity (3.70E2 nM): -0.003 | Secreted IgG (3.70E2 nM): -0.278 | sIL-2 (3.70E2 nM): -0.005 | sIL-6 (3.70E2 nM): -0.000869 | sIL-17A (3.70E2 nM): 0.240 | sIL-17F (3.70E2 nM): -0.290 | sTNF-alpha (3.70E2 nM): 0.057 | B cell Proliferation (4.12E1 nM): -0.040 | PBMC Cytotoxicity (4.12E1 nM): -0.011 | Secreted IgG (4.12E1 nM): -0.161 | sIL-2 (4.12E1 nM): 0.032 | sIL-6 (4.12E1 nM): 0.045 | sIL-17A (4.12E1 nM): 0.263 | sIL-17F (4.12E1 nM): -0.163 | sTNF-alpha (4.12E1 nM): 0.025 | B cell Proliferation (4.57E0 nM): 0.00188 | PBMC Cytotoxicity (4.57E0 nM): 0.009 | Secreted IgG (4.57E0 nM): 0.00642 | sIL-2 (4.57E0 nM): 0.059 | sIL-6 (4.57E0 nM): -0.013 | sIL-17A (4.57E0 nM): 0.029 | sIL-17F (4.57E0 nM): -0.027 | sTNF-alpha (4.57E0 nM): 0.044 | CCL2/MCP-1 (1.00E4 nM): -0.062 | CD54/ICAM-1 (1.00E4 nM): -0.066 | CD106/VCAM-1 (1.00E4 nM): 0.015 | CXCL8/IL-8 (1.00E4 nM): -0.071 | CXCL9/MIG (1.00E4 nM): -0.035 | CXCL10/IP-10 (1.00E4 nM): 0.016 | CXCL11/I-TAC (1.00E4 nM): -0.012 | Collagen I (1.00E4 nM): 0.017 | Collagen III (1.00E4 nM): 0.028 | EGFR (1.00E4 nM): -0.096 | M-CSF (1.00E4 nM): -0.031 | MMP-1 (1.00E4 nM): -0.059 | PAI-I (1.00E4 nM): -0.088 | Proliferation_72hr (1.00E4 nM): -0.248 | SRB (1.00E4 nM): -0.00367 | TIMP-1 (1.00E4 nM): -0.111 | TIMP-2 (1.00E4 nM): -0.065 | CCL2/MCP-1 (1.11E3 nM): -0.100 | CD54/ICAM-1 (1.11E3 nM): -0.070 | CD106/VCAM-1 (1.11E3 nM): 0.050 | CXCL8/IL-8 (1.11E3 nM): -0.111 | CXCL9/MIG (1.11E3 nM): -0.045 | CXCL10/IP-10 (1.11E3 nM): 0.029 | CXCL11/I-TAC (1.11E3 nM): -0.023 | Collagen I (1.11E3 nM): -0.003 | Collagen III (1.11E3 nM): 0.052 | EGFR (1.11E3 nM): -0.103 | M-CSF (1.11E3 nM): -0.041 | MMP-1 (1.11E3 nM): -0.071 | PAI-I (1.11E3 nM): -0.065 | Proliferation_72hr (1.11E3 nM): -0.244 | SRB (1.11E3 nM): -0.002 | TIMP-1 (1.11E3 nM): -0.078 | TIMP-2 (1.11E3 nM): 0.064 | CCL2/MCP-1 (1.23E2 nM): -0.076 | CD54/ICAM-1 (1.23E2 nM): -0.078 | CD106/VCAM-1 (1.23E2 nM): 0.069 | CXCL8/IL-8 (1.23E2 nM): -0.081 | CXCL9/MIG (1.23E2 nM): -0.042 | CXCL10/IP-10 (1.23E2 nM): 0.037 | CXCL11/I-TAC (1.23E2 nM): -0.032 | Collagen I (1.23E2 nM): 0.025 | Collagen III (1.23E2 nM): 0.068 | EGFR (1.23E2 nM): -0.097 | M-CSF (1.23E2 nM): -0.068 | MMP-1 (1.23E2 nM): -0.042 | PAI-I (1.23E2 nM): -0.031 | Proliferation_72hr (1.23E2 nM): -0.191 | SRB (1.23E2 nM): 0.024 | TIMP-1 (1.23E2 nM): -0.068 | TIMP-2 (1.23E2 nM): 0.076 | CCL2/MCP-1 (1.37E1 nM): -0.043 | CD54/ICAM-1 (1.37E1 nM): -0.058 | CD106/VCAM-1 (1.37E1 nM): 0.069 | CXCL8/IL-8 (1.37E1 nM): -0.024 | CXCL9/MIG (1.37E1 nM): -0.012 | CXCL10/IP-10 (1.37E1 nM): 0.038 | CXCL11/I-TAC (1.37E1 nM): -0.002 | Collagen I (1.37E1 nM): 0.048 | Collagen III (1.37E1 nM): 0.094 | EGFR (1.37E1 nM): -0.067 | M-CSF (1.37E1 nM): -0.052 | MMP-1 (1.37E1 nM): 0.006 | PAI-I (1.37E1 nM): 0.00043 | Proliferation_72hr (1.37E1 nM): -0.130 | SRB (1.37E1 nM): 0.016 | TIMP-1 (1.37E1 nM): -0.033 | TIMP-2 (1.37E1 nM): 0.049 | CCL2/MCP-1 (3.33E3 nM): -0.117 | CD54/ICAM-1 (3.33E3 nM): -0.064 | CD106/VCAM-1 (3.33E3 nM): 0.050 | CXCL8/IL-8 (3.33E3 nM): -0.103 | CXCL9/MIG (3.33E3 nM): -0.054 | CXCL10/IP-10 (3.33E3 nM): 0.032 | CXCL11/I-TAC (3.33E3 nM): -0.022 | Collagen I (3.33E3 nM): 0.006 | Collagen III (3.33E3 nM): 0.051 | EGFR (3.33E3 nM): -0.111 | M-CSF (3.33E3 nM): -0.031 | MMP-1 (3.33E3 nM): -0.057 | PAI-I (3.33E3 nM): -0.062 | Proliferation_72hr (3.33E3 nM): -0.194 | SRB (3.33E3 nM): -0.008 | TIMP-1 (3.33E3 nM): -0.075 | TIMP-2 (3.33E3 nM): -0.041 | CCL2/MCP-1 (3.70E2 nM): -0.066 | CD54/ICAM-1 (3.70E2 nM): -0.075 | CD106/VCAM-1 (3.70E2 nM): 0.067 | CXCL8/IL-8 (3.70E2 nM): -0.100 | CXCL9/MIG (3.70E2 nM): -0.034 | CXCL10/IP-10 (3.70E2 nM): 0.040 | CXCL11/I-TAC (3.70E2 nM): -0.017 | Collagen I (3.70E2 nM): 0.018 | Collagen III (3.70E2 nM): 0.066 | EGFR (3.70E2 nM): -0.123 | M-CSF (3.70E2 nM): -0.056 | MMP-1 (3.70E2 nM): -0.053 | PAI-I (3.70E2 nM): -0.013 | Proliferation_72hr (3.70E2 nM): -0.187 | SRB (3.70E2 nM): 0.021 | TIMP-1 (3.70E2 nM): -0.069 | TIMP-2 (3.70E2 nM): 0.123 | CCL2/MCP-1 (4.12E1 nM): -0.141 | CD54/ICAM-1 (4.12E1 nM): -0.066 | CD106/VCAM-1 (4.12E1 nM): 0.066 | CXCL8/IL-8 (4.12E1 nM): -0.049
